Experimental data: the Kinase Knowledgebase extract (Sharma et al. 2016)

target: PIK3CG (human) (UniProt P48736); assay: Inhibition of PIK3CG Kinase Activity
Sequence (P48736 whole entry, looked up): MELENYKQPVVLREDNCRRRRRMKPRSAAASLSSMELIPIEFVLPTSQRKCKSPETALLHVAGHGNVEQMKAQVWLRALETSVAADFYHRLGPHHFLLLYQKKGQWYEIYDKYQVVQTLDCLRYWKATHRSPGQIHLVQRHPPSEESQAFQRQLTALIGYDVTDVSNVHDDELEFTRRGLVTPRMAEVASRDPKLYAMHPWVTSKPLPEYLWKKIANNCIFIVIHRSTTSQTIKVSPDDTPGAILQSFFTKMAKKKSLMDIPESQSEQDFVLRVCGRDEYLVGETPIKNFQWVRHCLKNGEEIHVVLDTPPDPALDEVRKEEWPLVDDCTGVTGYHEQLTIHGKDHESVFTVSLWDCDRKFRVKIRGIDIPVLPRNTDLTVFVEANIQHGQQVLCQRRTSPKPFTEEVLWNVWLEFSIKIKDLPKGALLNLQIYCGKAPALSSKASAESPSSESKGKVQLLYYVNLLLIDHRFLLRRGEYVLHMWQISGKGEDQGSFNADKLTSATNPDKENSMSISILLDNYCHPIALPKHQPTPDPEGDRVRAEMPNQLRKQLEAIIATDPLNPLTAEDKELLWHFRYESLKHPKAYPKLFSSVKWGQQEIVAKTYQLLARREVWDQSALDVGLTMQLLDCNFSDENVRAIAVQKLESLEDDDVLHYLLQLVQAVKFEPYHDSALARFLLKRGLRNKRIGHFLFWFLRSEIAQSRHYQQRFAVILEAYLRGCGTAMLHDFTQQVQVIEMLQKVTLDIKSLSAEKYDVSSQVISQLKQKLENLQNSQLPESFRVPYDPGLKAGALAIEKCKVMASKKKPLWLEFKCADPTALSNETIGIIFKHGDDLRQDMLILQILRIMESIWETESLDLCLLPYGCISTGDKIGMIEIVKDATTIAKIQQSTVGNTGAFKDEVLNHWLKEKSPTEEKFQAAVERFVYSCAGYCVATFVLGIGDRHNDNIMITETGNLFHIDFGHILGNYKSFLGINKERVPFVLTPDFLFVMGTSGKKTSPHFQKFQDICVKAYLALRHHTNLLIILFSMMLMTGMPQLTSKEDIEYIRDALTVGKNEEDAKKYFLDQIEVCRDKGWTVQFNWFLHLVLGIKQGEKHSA

`C#CCNC(=O)c1cc(-c2cc(C)c3c(n2)C(C)(C)N(c2cnn(CC(F)(F)F)c2)C3=O)cnc1OC` was tested. Which Ki did it give?
Its Ki is < 100 nM.

With `COc1cc(-c2ccc3c(n2)C(C)N(c2cn(CC(F)(F)F)cn2)C3=O)cnc1OC` (centres undefined) as the molecule, how does the Ki read?
The Ki was < 100 nM.

With `COc1cc(-c2cc(C)c3c(n2)C(C)N(c2cnn(C[C@@H](C)O)c2)C3=O)cnc1OC` (some centres undefined) as the molecule, how does the Ki read?
The Ki was < 100 nM.

`COc1cc(-c2cc(C)c3c(n2)C(C)N(c2cnn(C[C@H](C)O)c2)C3=O)cnc1OC` (some centres undefined) was tested. Which Ki did it give?
The Ki was < 100 nM.

Which Ki does the source give for `COc1cc(-c2ccc3c(c2)CN(c2ncc(C)s2)C3=O)cnc1OC` here?
The Ki was 100 to 490 nM.

With `COCCOc1ncc(-c2cc(C)c3c(c2)CN(c2cnn(CC(F)(F)F)c2)C3=O)cc1OC` as the molecule, how does the Ki read?
Its Ki is < 100 nM.

How did the Ki turn out when `COc1cc(-c2cc(C)c3c(n2)CN(c2cnn(CC(F)F)c2)C3=O)cnc1OC` was run?
The Ki was < 100 nM.

How did the Ki turn out when `COc1cc(OC)cc(-c2cc(C)c3c(n2)[C@H](C)N(c2cnn(CC(F)(F)F)c2)C3=O)c1` was run?
The Ki was < 100 nM.

For `COc1cc(-c2ccc3c(n2)CN(c2ccc(N4CCC(CCO)C4)nc2)C3=O)cnc1OC` (centres undefined), which Ki is on record?
The Ki was 100 to 490 nM.

How did the Ki turn out when `COc1cc(-c2ccc3c(n2)CN(c2cnn(CCN4CCC(C#N)CC4)c2)C3=O)cnc1OC` was run?
The Ki was 100 to 490 nM.

How did the Ki turn out when `COc1cc(-c2ccc3c(n2)[C@H](C)N(c2ccnc(CC#N)c2)C3=O)cnc1OC` was run?
Its Ki is < 100 nM.

How did the Ki turn out when `Cc1cc(-c2cncc(OCC(F)(F)F)c2)cc2c1C(=O)N(c1cnn(CC(F)(F)F)c1)C2` was run?
Its Ki is < 100 nM.

For `CCn1cc(N2Cc3cc(-c4cnc5ccccc5c4)ccc3C2=O)cn1`, which Ki is on record?
Its Ki is 100 to 490 nM.

For `COc1cc(-c2ccc3c(c2)CN(c2cnn(CCO)c2)C3=O)cnc1OC`, which Ki is on record?
The Ki was 100 to 490 nM.

`COc1cc(-c2ccc3c(c2)CN(c2cccc(C#N)c2)C3=O)cnc1OC` was tested. Which Ki did it give?
The Ki was 100 to 490 nM.

With `CC(=O)Nc1cncc(-c2cc(C)c3c(n2)C(C)(C)N(c2cnn(CC(F)(F)F)c2)C3=O)c1` as the molecule, how does the Ki read?
The Ki was < 100 nM.

How did the Ki turn out when `COc1cc(-c2ccc3c(n2)CN(c2cnn(C4CCOCC4)c2)C3=O)cnc1OC` was run?
The Ki was < 100 nM.

How did the Ki turn out when `COc1cc(-c2ccc3c(n2)[C@H](C)N(c2cn[nH]c2)C3=O)cnc1OC` was run?
Its Ki is < 100 nM.

For `Cc1cc(-c2cncc(OCC(F)F)c2)nc2c1C(=O)N(c1cnn(CC(F)(F)F)c1)C2`, which Ki is on record?
The Ki was < 100 nM.

How did the Ki turn out when `CCOc1cncc(-c2cc(C)c3c(n2)C(C)(C)N(c2cnn(CC(F)F)c2)C3=O)c1` was run?
Its Ki is < 100 nM.

For `Cc1cc(-c2cncc(S(=O)(=O)N(C)C)c2)nc2c1C(=O)N(c1ccn([C@H]3CCOC3)n1)C2`, which Ki is on record?
Its Ki is < 100 nM.

How did the Ki turn out when `COc1cc(-c2ccc3c(n2)C(C)(C)N(c2cnn(CC(F)(F)F)c2)C3=O)cnc1OC` was run?
The Ki was < 100 nM.

`COCCOc1ncc(-c2cc(C)c3c(n2)CN(c2cnn(CC#N)c2)C3=O)cc1OC` was tested. Which Ki did it give?
The Ki was < 100 nM.

For `COc1cc(-c2cc(C)c3c(n2)CN(c2ccc(OCC(F)(F)F)nc2)C3=O)cnc1OC`, which Ki is on record?
Its Ki is < 100 nM.

`COc1cncc(-c2cc(C)c3c(n2)CN(c2ccn(CC4CCCO4)n2)C3=O)c1` (centres undefined) was tested. Which Ki did it give?
The Ki was < 100 nM.

How did the Ki turn out when `COc1cc(-c2cc(C)c3c(n2)CN(c2cn(C)cn2)C3=O)cnc1OC` was run?
Its Ki is < 100 nM.

`CCOc1cncc(-c2cc(C)c3c(n2)C2(CCOC2)N(c2cnn(CC(F)(F)F)c2)C3=O)c1` (centres undefined) was tested. Which Ki did it give?
Its Ki is < 100 nM.

With `COc1ncc(-c2cc(C)c3c(c2)C(C)N(c2cnn(CC(F)(F)F)c2)C3=O)cc1OC(F)F` (centres undefined) as the molecule, how does the Ki read?
The Ki was < 100 nM.

For `CO[C@@H]1c2nc(-c3cncc(OCC(F)F)c3)cc(C)c2C(=O)N1c1cnn(CC(F)(F)F)c1`, which Ki is on record?
The Ki was < 100 nM.

For `COc1cc(-c2ccc3c(c2)CN(c2cnn(C)c2)C3=O)cnc1OC`, which Ki is on record?
The Ki was 100 to 490 nM.

For `CCn1cc(N2Cc3cc(-c4cnc(OC)c(OC)c4)ccc3C2=O)cn1`, which Ki is on record?
The Ki was < 100 nM.

Which Ki does the source give for `CC[C@@H]1c2nc(-c3cnc(OC)c(OC)c3)ccc2C(=O)N1c1cnn(CC(F)(F)F)c1` here?
Its Ki is < 100 nM.

Which Ki does the source give for `Cc1cc(-c2cncc(C(=O)N(C)C(C)CO)c2)nc2c1C(=O)N(c1cnn(CC(F)(F)F)c1)C2(C)C` (centres undefined) here?
The Ki was < 100 nM.

With `Cc1cc(-c2cncc(OC(F)F)c2)nc2c1C(=O)N(c1cncc(CC#N)c1)C2` as the molecule, how does the Ki read?
The Ki was < 100 nM.

`COc1cc(-c2ccc3c(n2)CN(c2cnn(CCCO)c2)C3=O)cnc1OC` was tested. Which Ki did it give?
Its Ki is < 100 nM.

Which Ki does the source give for `COc1cncc(-c2cc(C)c3c(n2)C(C)(C)N(c2cnn([C@@H]4CCOC4)c2)C3=O)c1` here?
Its Ki is < 100 nM.

Which Ki does the source give for `COc1cc(-c2ccc3c(n2)CN(c2nccs2)C3=O)cnc1OC` here?
The Ki was < 100 nM.

How did the Ki turn out when `COc1cc(-c2cc(C)c3c(n2)CN(c2ccc(CO)nc2)C3=O)cnc1OC` was run?
Its Ki is < 100 nM.

How did the Ki turn out when `Cc1cc(-c2ccc(F)c(O)c2)nc2c1C(=O)N(c1cnn(CC(F)(F)F)c1)C2` was run?
The Ki was < 100 nM.

With `Cc1cc(-c2cncc(OC(F)F)c2)nc2c1C(=O)N(c1cnn(CC(F)(F)F)c1)C2` as the molecule, how does the Ki read?
The Ki was < 100 nM.

How did the Ki turn out when `Cc1cc(-c2cncc(OC(F)F)c2)nc2c1C(=O)N(c1cn[nH]c1)C2` was run?
The Ki was < 100 nM.

How did the Ki turn out when `Cc1ncc(-c2ccc3c(n2)CN(c2cnn(CC(F)(F)F)c2)C3=O)cc1O` was run?
Its Ki is 100 to 490 nM.

Which Ki does the source give for `COc1cc(N2Cc3nc(-c4cnc(OC)c(OC)c4)ccc3C2=O)n[nH]1` here?
The Ki was < 100 nM.

Which Ki does the source give for `CCOc1cc(N2Cc3nc(-c4cnc(OC)c(OC)c4)cc(C)c3C2=O)ccn1` here?
The Ki was < 100 nM.

How did the Ki turn out when `COc1ncc(-c2cc(C)c3c(n2)C(C)(C)N(c2cnn(CC(F)(F)F)c2)C3=O)cc1C(=O)O` was run?
The Ki was < 100 nM.

`Cc1ccc(-c2cc(C)c3c(n2)CN(c2cnn(CC(F)(F)F)c2)C3=O)cc1O` was tested. Which Ki did it give?
The Ki was < 100 nM.

Which Ki does the source give for `CCOc1cncc(-c2cc(C)c3c(n2)[C@H](OC)N(c2cnn(CC(F)(F)F)c2)C3=O)c1` here?
The Ki was < 100 nM.

With `COc1cncc(-c2cc(C)c3c(n2)C(C)N(c2cn[nH]c2)C3=O)c1` (centres undefined) as the molecule, how does the Ki read?
The Ki was < 100 nM.

Which Ki does the source give for `Cc1cc(-c2cncc(C(=O)O)c2)nc2c1C(=O)N(c1cnn(CC(F)(F)F)c1)C2(C)C` here?
Its Ki is < 100 nM.

`COCn1cc(N2Cc3nc(-c4cnc(OC)c(OC)c4)cc(C)c3C2=O)cn1` was tested. Which Ki did it give?
The Ki was < 100 nM.

For `COc1cc(-c2ccc3c(n2)CN(c2cnn(C)n2)C3=O)cnc1OC`, which Ki is on record?
Its Ki is < 100 nM.

For `COc1cc(-c2cc(C)c3c(n2)C(CC2CCOC2)N(c2cnn(CC(F)(F)F)c2)C3=O)cnc1OC` (centres undefined), which Ki is on record?
The Ki was < 100 nM.

How did the Ki turn out when `COc1cc(-c2cc(C)c3c(n2)C(C)(C)N(c2cnn(CC(F)(F)F)c2)C3=O)cnc1F` was run?
Its Ki is < 100 nM.

With `COc1cc(-c2cc(C)c3c(n2)C(O[C@H]2CCOC2)N(c2cnn(CC(F)(F)F)c2)C3=O)cnc1OC` (some centres undefined) as the molecule, how does the Ki read?
The Ki was < 100 nM.

`CCOc1cc(-c2cc(C)c3c(n2)CN(c2cnn(CC#N)c2)C3=O)cnc1OCC` was tested. Which Ki did it give?
The Ki was < 100 nM.

With `CCn1cc(N2Cc3nc(-c4cnc(OC)c(OC(F)F)c4)cc(C)c3C2=O)cn1` as the molecule, how does the Ki read?
Its Ki is < 100 nM.

With `CCn1ncc(N2Cc3cc(-c4cnc(OC)c(OC)c4)ccc3C2=O)n1` as the molecule, how does the Ki read?
The Ki was < 100 nM.

Which Ki does the source give for `Cc1cc(-c2cncc(CO)c2)nc2c1C(=O)N(c1cnn(CC(F)(F)F)c1)C2` here?
Its Ki is < 100 nM.

How did the Ki turn out when `Cc1cc(-c2cncc(OCCF)c2)nc2c1C(=O)N(c1cnn(CC(F)(F)F)c1)C2` was run?
Its Ki is < 100 nM.

With `COc1cc(-c2ccc3c(n2)CN(c2cn[nH]c2)C3=O)cnc1OC` as the molecule, how does the Ki read?
Its Ki is < 100 nM.

For `COc1cc(-c2ccc3c(n2)CN(c2cnn(Cc4cncn4C)c2)C3=O)cnc1OC`, which Ki is on record?
Its Ki is < 100 nM.

For `COc1cc(-c2ccc3c(n2)CN(c2cnn(CCn4cccc4)c2)C3=O)cnc1OC`, which Ki is on record?
Its Ki is < 100 nM.

Which Ki does the source give for `CCC(O)c1ncc(N2Cc3nc(-c4cnc(OC)c(OC)c4)cc(C)c3C2=O)cn1` (centres undefined) here?
Its Ki is < 100 nM.

How did the Ki turn out when `COc1cc(-c2cc(C)c3c(n2)C(C)N(c2cnn(CC(F)(F)F)c2)C3=O)cnc1C` (centres undefined) was run?
The Ki was < 100 nM.

Which Ki does the source give for `COc1cc(-c2cc(C)c3c(n2)CN(c2cnn(CC(F)(F)F)c2)C3=O)cnc1C` here?
Its Ki is < 100 nM.

How did the Ki turn out when `COc1ccc(-c2cc(C)c3c(n2)CN(c2cnn(CC(F)(F)F)c2)C3=O)nc1OC` was run?
Its Ki is < 100 nM.

Which Ki does the source give for `COCCOCCOc1ncc(-c2cc(C)c3c(n2)C(C)N(c2cnn(CC(F)(F)F)c2)C3=O)cc1OC` (centres undefined) here?
The Ki was < 100 nM.

How did the Ki turn out when `Cc1cc(-c2cncc(OCC(F)F)c2)nc2c1C(=O)N(c1cnn(CC(F)(F)F)c1)C2O` (centres undefined) was run?
Its Ki is < 100 nM.

With `C=C(F)Cn1cc(N2Cc3nc(-c4cncc(OC(F)F)c4)cc(C)c3C2=O)cn1` as the molecule, how does the Ki read?
The Ki was < 100 nM.
